# Results as given in ChEMBL document CHEMBL5506004, “Optimizing drug-like properties of selective butyrylcholinesterase inhibitors for cognitive improvement: Enhancing aqueous solubility by disrupting molecular plane” (Eur J Med Chem, 2024).
# Activity calls are given as the source filed them. No cut-off for these calls is given here.
# Legend:
# [1] = Solubility of compound in FaSSIF incubated for 24 hrs by HPLC analysis; assay type: ADME
# BV-2 = assay: Cytotoxicity against mouse BV-2 cells assessed as survival rate at 100 uM incubated for 24 hrs by MTT assay relative to control; assay type: functional; settings: read-out: Survival
# [2] = Cmax in brain of ICR mouse at 10 mg/kg, po measured for 10 to 480 mins by spectroscopy; assay type: ADME, organism-based; settings: time 10-480 min
# Mus musculus [3] = assay: Cognitive enhancing effect in Amyloid beta (1 to 42)-treated ICR mouse assessed as reduction in trajectory uncertainty at 10 mg/kg, po administered daily measured after 7 to 12 days by Morris water maze test; assay type: functional, organism-based; settings: time 7-12 day
# Cholinesterase = Cholinesterase (Homo sapiens, UniProt P06276); assay: Non-competitive inhibition of human BChE
# CYP2D6 = CYP2D6 (Homo sapiens, UniProt P10635); assay: Inhibition of CYP2D6 in human liver microsomes at 10 uM in presence of NADPH-regenerating system by LC-MS/MS analysis relative to control; assay type: ADME, Microsome
# [4] = AUC (0 to t) in Sprague-Dawley rat at 10 mg/kg, iv measured for 1 to 1440 mins by LC-MS/MS analysis; assay type: ADME, organism-based; settings: in vivo, time 1-1440 min
# [5] = AUC (0 to infinity) in Sprague-Dawley rat at 10 mg/kg, iv measured for 1 to 1440 mins by LC-MS/MS analysis; assay type: ADME, organism-based; settings: in vivo, time 1-1440 min
# [6] = Acute toxicity in ICR mouse assessed as animal growth at 1 g/kg, IG; settings: in vivo, po, 1000 mg/kg
# hERG (KCNH2) = hERG (KCNH2) (Homo sapiens, UniProt Q12809); assay: Inhibition of hERG at 10 uM by manual patch clamp assay relative to control; assay type: toxicity
# [7] = AUC (0 to t) in plasma of ICR mouse at 10 mg/kg, po measured for 10 to 480 mins by spectroscopy; assay type: ADME, organism-based; settings: time 10-480 min
# [8] = Ratio of Cmax in brain to plasma in ICR mouse at 10 mg/kg, po measured for 10 to 480 mins by spectroscopy; assay type: ADME, organism-based; settings: time 10-480 min
# [9] = Ratio of AUC (0 to t) in brain to plasma in ICR mouse at 10 mg/kg, po measured for 10 to 480 mins by spectroscopy; assay type: ADME, organism-based; settings: time 10-480 min
# PC-12 = assay: Cytotoxicity against rat PC12 cells assessed as survival rate at 100 uM incubated for 24 hrs by MTT assay relative to control; assay type: functional; settings: read-out: Survival
# Mus musculus [10] = assay: Cognitive enhancing effect in Amyloid beta (1 to 42)-treated ICR mouse assessed as spontaneous decision behaviour at 10 mg/kg, po administered daily measured after 13 days by Y-maze test; assay type: functional, organism-based; settings: time 13.0 day
# [11] = Oral bioavailability in Sprague-Dawley rat at 10 mg/kg measured for 1 to 1440 mins by LC-MS/MS analysis; assay type: ADME, organism-based; settings: in vivo, time 1-1440 min
# Cytochrome P450 1A2 = target: T1, Cytochrome P450 1A2 (Homo sapiens, UniProt P05177); assay: Inhibition of CYP1A2 in human liver microsomes at 10 uM in presence of NADPH-regenerating system by LC-MS/MS analysis; assay type: ADME, Microsome
# T1 sequence (P05177 whole entry): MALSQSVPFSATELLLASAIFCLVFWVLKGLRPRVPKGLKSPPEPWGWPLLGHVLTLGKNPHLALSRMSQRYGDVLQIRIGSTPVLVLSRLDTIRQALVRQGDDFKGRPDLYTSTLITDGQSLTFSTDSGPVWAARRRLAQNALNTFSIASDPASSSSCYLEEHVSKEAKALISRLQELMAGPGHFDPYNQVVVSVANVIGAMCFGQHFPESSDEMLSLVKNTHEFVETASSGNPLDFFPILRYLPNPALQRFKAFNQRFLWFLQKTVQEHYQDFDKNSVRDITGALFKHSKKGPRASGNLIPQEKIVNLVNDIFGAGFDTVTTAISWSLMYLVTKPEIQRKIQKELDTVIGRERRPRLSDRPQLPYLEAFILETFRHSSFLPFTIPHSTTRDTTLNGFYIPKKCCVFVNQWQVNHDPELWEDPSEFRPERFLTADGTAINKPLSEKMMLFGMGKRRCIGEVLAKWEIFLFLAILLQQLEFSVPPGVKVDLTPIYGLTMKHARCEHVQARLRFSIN
# Mus musculus [12] = assay: Cognitive enhancing effect in Amyloid beta (1 to 42)-treated ICR mouse assessed as shorter arrival time at 10 mg/kg, po administered daily measured after 7 to 12 days by Morris water maze test; assay type: functional, organism-based; settings: time 7-12 day
# [13] = Cmax in plasma of ICR mouse at 10 mg/kg, po measured for 10 to 480 mins by spectroscopy; assay type: ADME, organism-based; settings: time 10-480 min
# [14] = Half life in Sprague-Dawley rat at 10 mg/kg, po measured for 1 to 1440 mins by LC-MS/MS analysis; assay type: ADME, organism-based; settings: in vivo, time 1-1440 min
# [15] = AUC (0 to t) in Sprague-Dawley rat at 10 mg/kg, po measured for 1 to 1440 mins by LC-MS/MS analysis; assay type: ADME, organism-based; settings: in vivo, time 1-1440 min
# Cytochrome P450 3A4/3A5 = Cytochrome P450 3A4/3A5 (Homo sapiens, UniProt P08684+P20815); assay: Inhibition of CYP3A4/CYP3A5 in human liver microsomes at 10 uM in presence of NADPH-regenerating system by LC-MS/MS analysis; assay type: ADME, Microsome
# [16] = MRT (infinity) in Sprague-Dawley rat at 10 mg/kg, iv measured for 1 to 1440 mins by LC-MS/MS analysis; assay type: ADME, organism-based; settings: in vivo, time 1-1440 min
# HT-22 = assay: Neuroprotective activity against glutamate-induced excitotoxicity in mouse HT-22 cells assessed as cell viability at 1 to 10 uM pretreated for 1 hr followed by glutamate addition measured after 24 hrs by MTT assay; assay type: functional, cell-based; settings: dose 1-10 µM, time 25.0 hrs
# [17] = Toxicity in Amyloid beta (1 to 42)-treated ICR mouse assessed as body weight change at 10 mg/kg, po administered daily for 12 days; assay type: organism-based; settings: in vivo, 288 h, time 12 day
# [18] = target: Amyloid-beta precursor protein (Mus musculus) (UniProt P12023); assay: In vivo inhibition of Amyloid beta (1 to 42) self-aggregation in brain of Amyloid beta (1 to 42)-treated ICR mouse at 10 mg/kg, po administered daily for 12 days; assay type: functional, organism-based; settings: time 12.0 day
# [19] = Toxicity in Amyloid beta (1 to 42)-treated ICR mouse assessed as drug tolerance at 10 mg/kg, po administered daily for 12 days; assay type: organism-based; settings: in vivo, 288 h, time 12 day
# CYP2C9 = CYP2C9 (Homo sapiens, UniProt P11712); assay: Inhibition of CYP2C9 in human liver microsomes at 10 uM in presence of NADPH-regenerating system by LC-MS/MS analysis relative to control; assay type: ADME, Microsome
# Mus musculus [20] = assay: Downregulation of Amyloid beta (1 to 42) level in brain of Amyloid beta (1 to 42)-treated ICR mouse at 10 mg/kg, po administered daily for 12 days; assay type: functional, organism-based; settings: time 12.0 day
# CYP2C19 = CYP2C19 (Homo sapiens, UniProt P33261); assay: Inhibition of CYP2C19 in human liver microsomes at 10 uM in presence of NADPH-regenerating system by LC-MS/MS analysis relative to control; assay type: ADME, Microsome
# Chain of CYP2C19 (P33261 whole entry): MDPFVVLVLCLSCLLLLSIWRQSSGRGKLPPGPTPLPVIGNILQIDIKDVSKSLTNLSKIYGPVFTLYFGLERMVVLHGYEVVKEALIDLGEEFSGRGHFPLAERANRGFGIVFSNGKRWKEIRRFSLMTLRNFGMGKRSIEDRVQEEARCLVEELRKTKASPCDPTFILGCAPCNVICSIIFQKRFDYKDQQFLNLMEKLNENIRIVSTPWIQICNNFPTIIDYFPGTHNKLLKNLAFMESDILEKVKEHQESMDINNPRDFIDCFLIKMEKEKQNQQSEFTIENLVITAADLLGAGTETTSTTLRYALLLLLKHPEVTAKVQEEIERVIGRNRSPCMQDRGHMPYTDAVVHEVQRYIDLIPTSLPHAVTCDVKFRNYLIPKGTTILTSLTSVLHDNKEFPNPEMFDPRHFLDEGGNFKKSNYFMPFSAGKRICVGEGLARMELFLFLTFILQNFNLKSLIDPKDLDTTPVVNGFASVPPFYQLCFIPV
# Chain of hERG (KCNH2) (Q12809 whole entry): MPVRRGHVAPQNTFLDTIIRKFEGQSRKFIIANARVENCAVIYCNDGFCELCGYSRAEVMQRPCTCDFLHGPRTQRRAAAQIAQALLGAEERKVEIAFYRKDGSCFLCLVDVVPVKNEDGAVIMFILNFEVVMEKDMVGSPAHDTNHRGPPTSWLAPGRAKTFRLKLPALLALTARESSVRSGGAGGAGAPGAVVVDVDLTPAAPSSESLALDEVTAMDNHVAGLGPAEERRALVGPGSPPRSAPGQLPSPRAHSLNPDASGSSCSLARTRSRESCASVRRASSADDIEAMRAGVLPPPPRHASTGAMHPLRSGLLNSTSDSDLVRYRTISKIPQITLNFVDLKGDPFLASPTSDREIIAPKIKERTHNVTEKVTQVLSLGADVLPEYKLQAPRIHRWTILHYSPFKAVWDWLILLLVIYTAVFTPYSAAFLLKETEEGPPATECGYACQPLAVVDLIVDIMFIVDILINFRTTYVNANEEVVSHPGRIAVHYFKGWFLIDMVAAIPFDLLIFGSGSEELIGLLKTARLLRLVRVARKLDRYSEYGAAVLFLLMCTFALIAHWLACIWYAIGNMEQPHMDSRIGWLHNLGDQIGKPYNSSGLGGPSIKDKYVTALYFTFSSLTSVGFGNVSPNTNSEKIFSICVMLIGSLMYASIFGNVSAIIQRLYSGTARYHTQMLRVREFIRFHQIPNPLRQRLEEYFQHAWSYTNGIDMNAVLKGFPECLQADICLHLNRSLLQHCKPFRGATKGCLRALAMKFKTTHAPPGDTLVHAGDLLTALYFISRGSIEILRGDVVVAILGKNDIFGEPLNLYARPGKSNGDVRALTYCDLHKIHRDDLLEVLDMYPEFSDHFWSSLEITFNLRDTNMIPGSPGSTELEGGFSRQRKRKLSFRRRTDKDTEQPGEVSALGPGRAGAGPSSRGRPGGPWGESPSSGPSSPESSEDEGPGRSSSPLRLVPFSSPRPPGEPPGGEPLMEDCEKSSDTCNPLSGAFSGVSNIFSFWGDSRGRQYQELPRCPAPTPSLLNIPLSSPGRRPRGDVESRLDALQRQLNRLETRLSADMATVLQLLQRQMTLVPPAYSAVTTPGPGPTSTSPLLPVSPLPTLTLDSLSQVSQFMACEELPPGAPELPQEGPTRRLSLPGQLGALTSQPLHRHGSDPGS
# Chain of Cholinesterase (P06276 whole entry): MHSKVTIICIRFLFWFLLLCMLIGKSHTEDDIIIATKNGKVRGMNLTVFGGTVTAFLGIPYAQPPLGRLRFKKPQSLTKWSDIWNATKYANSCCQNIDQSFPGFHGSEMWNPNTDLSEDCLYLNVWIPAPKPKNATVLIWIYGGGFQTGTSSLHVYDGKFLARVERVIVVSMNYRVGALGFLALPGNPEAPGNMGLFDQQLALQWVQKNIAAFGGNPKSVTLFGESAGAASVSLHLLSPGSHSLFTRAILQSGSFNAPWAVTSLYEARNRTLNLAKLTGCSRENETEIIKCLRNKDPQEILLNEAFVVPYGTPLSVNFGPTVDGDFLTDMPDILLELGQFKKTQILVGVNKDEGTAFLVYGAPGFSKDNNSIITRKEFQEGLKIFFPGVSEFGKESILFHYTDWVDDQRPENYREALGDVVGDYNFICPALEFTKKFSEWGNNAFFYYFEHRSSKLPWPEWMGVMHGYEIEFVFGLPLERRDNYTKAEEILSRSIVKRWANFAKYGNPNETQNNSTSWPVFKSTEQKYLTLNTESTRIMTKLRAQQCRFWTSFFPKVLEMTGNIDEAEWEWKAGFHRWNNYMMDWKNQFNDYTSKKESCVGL
# Chain of Amyloid-beta precursor protein (Mus musculus) (P12023 whole entry): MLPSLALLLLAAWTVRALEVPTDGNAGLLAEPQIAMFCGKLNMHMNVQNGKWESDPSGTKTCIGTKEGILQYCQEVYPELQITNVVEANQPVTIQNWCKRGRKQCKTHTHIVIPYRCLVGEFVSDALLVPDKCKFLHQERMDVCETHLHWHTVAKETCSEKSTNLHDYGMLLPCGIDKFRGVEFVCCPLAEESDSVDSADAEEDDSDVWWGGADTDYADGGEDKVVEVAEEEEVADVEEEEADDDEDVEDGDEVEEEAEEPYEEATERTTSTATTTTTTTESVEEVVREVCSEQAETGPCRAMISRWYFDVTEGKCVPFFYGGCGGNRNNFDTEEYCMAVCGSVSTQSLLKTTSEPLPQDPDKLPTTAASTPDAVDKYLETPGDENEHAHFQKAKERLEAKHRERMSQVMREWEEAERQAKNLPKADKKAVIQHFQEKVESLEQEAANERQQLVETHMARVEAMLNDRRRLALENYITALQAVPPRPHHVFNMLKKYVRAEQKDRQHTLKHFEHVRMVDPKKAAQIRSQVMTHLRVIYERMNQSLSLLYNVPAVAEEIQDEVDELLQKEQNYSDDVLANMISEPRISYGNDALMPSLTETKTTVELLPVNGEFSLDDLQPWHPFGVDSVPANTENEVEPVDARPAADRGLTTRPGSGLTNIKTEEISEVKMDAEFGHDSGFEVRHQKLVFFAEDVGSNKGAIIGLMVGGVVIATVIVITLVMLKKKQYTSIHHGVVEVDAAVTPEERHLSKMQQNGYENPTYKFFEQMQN
# Chain of CYP2C9 (P11712 whole entry): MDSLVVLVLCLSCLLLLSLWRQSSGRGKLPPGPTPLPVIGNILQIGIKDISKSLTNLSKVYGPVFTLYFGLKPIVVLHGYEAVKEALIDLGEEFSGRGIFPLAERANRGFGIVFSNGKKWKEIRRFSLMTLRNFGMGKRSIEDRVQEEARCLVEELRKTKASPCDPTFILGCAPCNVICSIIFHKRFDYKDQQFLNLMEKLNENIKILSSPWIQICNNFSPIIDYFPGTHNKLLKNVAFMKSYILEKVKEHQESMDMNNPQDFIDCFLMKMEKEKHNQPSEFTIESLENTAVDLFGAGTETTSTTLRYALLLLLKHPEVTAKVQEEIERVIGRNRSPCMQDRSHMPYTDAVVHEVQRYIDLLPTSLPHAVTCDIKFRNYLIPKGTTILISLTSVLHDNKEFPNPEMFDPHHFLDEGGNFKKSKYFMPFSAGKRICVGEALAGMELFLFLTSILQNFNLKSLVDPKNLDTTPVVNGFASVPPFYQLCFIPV
# Chain of CYP2D6 (P10635 whole entry): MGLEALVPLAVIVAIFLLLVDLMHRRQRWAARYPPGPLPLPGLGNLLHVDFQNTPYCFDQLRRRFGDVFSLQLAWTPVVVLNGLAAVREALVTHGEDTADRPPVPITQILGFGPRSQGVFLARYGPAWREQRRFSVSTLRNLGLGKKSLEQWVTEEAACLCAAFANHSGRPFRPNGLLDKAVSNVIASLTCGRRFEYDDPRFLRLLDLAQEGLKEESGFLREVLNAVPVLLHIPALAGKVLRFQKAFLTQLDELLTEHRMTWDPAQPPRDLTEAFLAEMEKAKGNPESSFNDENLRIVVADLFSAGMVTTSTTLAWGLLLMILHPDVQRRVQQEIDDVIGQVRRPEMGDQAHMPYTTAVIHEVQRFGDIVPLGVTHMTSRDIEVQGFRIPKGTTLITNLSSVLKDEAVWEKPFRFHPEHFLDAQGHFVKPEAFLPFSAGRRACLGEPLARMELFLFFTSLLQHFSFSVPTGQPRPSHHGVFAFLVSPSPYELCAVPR
structure (smiles),measurement,setting,value
Nc1nonc1-c1nc2ccccc2n1CC(=O)Nc1ccc(CCN2CCOCC2)cc1,solubility at 24 h,[1],3.28 mM
same,viability at 100 µM,BV-2,66.5%
same,Cmax,[2],209 ng/mL
same,Activity,Mus musculus [3],Active
same,inhibition,Cholinesterase,Active
same,inhibition at 10 µM,CYP2D6,0.89%
same,AUC(0-t),[4],3570 ng·h/mL
same,AUC(0-inf),[5],3590 ng·h/mL
same,Activity,[6],Non-Toxic
same,inhibition at 10 µM,hERG (KCNH2),25.5%
same,AUC(0-t),[7],826 ng·h/mL
same,Kp,[8],0.15
same,Kp,[9],0.32
same,viability at 100 µM,PC-12,75.5%
same,Activity,Mus musculus [10],Active
same,bioavailability,[11],48.2%
same,inhibition (INH),Cytochrome P450 1A2,Not Active
same,Activity,Mus musculus [12],Active
same,Cmax,[13],1390 ng/mL
same,half-life,[14],6.77 h
same,AUC(0-t),[15],1440 ng·h/mL
same,inhibition (INH),Cytochrome P450 3A4/3A5,Not Active
same,MRT inf,[16],2.57 h
same,Activity,HT-22,Active
same,Activity,[17],Non-Toxic
same,inhibition,[18],inactive
same,Activity,[19],Non-Toxic
same,inhibition at 10 µM,CYP2C9,10.9%
same,Activity,Mus musculus [20],Active
same,inhibition at 10 µM,CYP2C19,9.19%
